Experimental data from patent US20230277612A1, “SAPONIN DERIVATIVES FOR USE IN MEDICINE” (priority 2020, published 2023).
Like-named read-outs stand apart in the source and are kept apart here. [BNA] = bridged nucleic acid sugar (2',4'-BNA), type not further given; d = 2'-deoxy (DNA)

Tests used:
HeLa cells [1] = test: Pilot cell-based bioassay: 10 μg/ml saponin with or without 1.5 pM dianthin-EGF, 72 h, relative cell viability; set-up: key to Cell killing activity (+ or −): Cell killing activity (+ or −); Cell killing activity (+ or −); settings: for Cell viability after 72 h: 10 microgram/ml saponin + […] dianthin-EGF, HeLa cells
Description: HeLa cells were incubated for 72 h with the following constructs and cell viability before and after the 72 h-incubation was assessed. In the experiments, cells were exposed to 1.5 pM dianthin-EGF conjugate. A negative control were cells incubated with buffer vehicle and 10 microgram/ml saponin, without dianthin-EGF. Cell viability was set to 100% for the control in which both saponin and EGF-dianthin were omitted. […] Cell viability after 72 h was essentially 0%. For the chemically modified saponin variants, 10 microgram/ml saponin was tested in combination with 1.5 pM dianthin-EGF.

HeLa (EGFR+) cells = test: Saponin titration in presence and absence of […] EGFdianthin, cell viability; assay type: cell-based; settings: for IC50: read-out: General toxicity (IC50 / highest concentration)
Description: To extend this test, saponins from other sources were analyzed. A saponin purified from a root extract of Gypsophila elegans M.Bieb. […] FIG. 63C).

A431 (EGFR++) cells = test: Saponin derivative titration in presence and absence of […] EGFdianthin, cell viability; assay type: cell-based; settings: for IC50: read-out: Toxicity as single compound
[2] = Critical micellar concentration (CMC) by ANS fluorescence; assay type: physicochemical; settings: for CMC value: PBS
In short: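 Saponin solutions (dry-weight concentrations 1–1400 μM) in purified water or Dulbecco's PBS+/+ were mixed with ANS, 75.86 μM, 6 μg per sample. ANS fluorescence was read at 355 nm excitation and 460 nm emission. CMC was taken from the rise in ANS fluorescence yield as the dye partitions into micelles.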

[3] = tested on: EGFR expressing cells (HeLa and A431); settings: summary in description
HeLa cells [4] = test: cells; assay type: cell-based
Description: (§1) (FIGS. 66a and 66B). Next toxicity was determined, for this the modified saponins were titrated on HeLa and A431 cells. […] Next toxicity was determined, for this the modified saponins were titrated on HeLa and A431 cells.

[5] = tested on: EGFR expressing cells (A431); test: Saponin titration on fixed 10 pM cetuximab-saporin, cell viability (MTS); assay type: cell-based; settings: without cetuximab-saporin
[6] = tested on: EGFR expressing cells (A431); test: Saponin titration on fixed 10 pM EGFdianthin, cell viability (MTS); assay type: cell-based; settings: without EGFdianthin
A2058 (EGFR−) cells = test: Saponin derivative titration in presence and absence of […] EGFdianthin, cell viability; assay type: cell-based
[7] = tested on: EGFR expressing cells (HeLa); assay type: cell-based; settings: HeLa; + 5 pM EGFdianthin; read-out: IC50 endosomal escape enhancing activity
A431 cells = test: cells; assay type: cell-based; settings: Homo sapiens
Description: as §1

human red blood cells = test: cells; assay type: cell-based; settings: Homo sapiens, Erythrocyte
HSP27 mRNA [8] = test: HSP27 mRNA gene silencing analysis in A431 cells; assay type: cell-based; settings: SO1861-Ald-EMCH alone
Text: (§2) RNA from cells was isolated and analysed according to standard protocols (Biorad). qPCR primers that were used are indicated in Table A10.

[9] = pH dependent hydrolysis of the hydrazone bond (HCl solution pH 3, MALDI-TOF-MS); assay type: physicochemical; settings: HCl solution at pH 3
HSP27 mRNA [10] = test: HSP27 mRNA gene silencing analysis in SK-BR-3 cells; assay type: cell-based; settings: in the presence of 4000 nM or 4829 nM SO1861-Ald-EMCH; read-out: IC50(SK-BR3) HSP27 gene silencing
Text: as §2

[11] = 10 μg/ml SO1861 or SO1861-derivative + […] EGFdianthin
[12] = 10 μg/ml SO1861 or SO1861-derivative alone

CC(=O)OC1C(C)OC(OC2C(C)OC(OC(=O)C34CCC(C)(C)CC3C3=CCC5C6(C)CCC(OC7OC(C(=O)O)C(O)C(OC8OCC(O)C(O)C8O)C7OC7OC(CO)C(O)C(O)C7O)C(C)(C=NNC(=O)CCOCCOCCOCCOCCN=[N+]=[N-])C6CCC5(C)C3(C)CC4O)C(OC3OC(C)C(OC4OCC(O)C(OC5OC(CO)C(O)C(O)C5O)C4O)C(O)C3O)C2O)C(O)C1OC1OCC(O)C(O)C1O (stereo not shown)
Cell killing activity (+ or −) (HeLa cells [1]; [11]): + | Cell killing activity (+ or −) (HeLa cells [1]; [12]): − | IC50 (HeLa (EGFR+) cells; in absence of EGFdianthin): > 10 µM | IC50 (A431 (EGFR++) cells; A431, without EGFdianthin): > 10 µM

CC1OC(OC2C(C)OC(OC(=O)C34CCC(C)(C)CC3C3=CCC5C6(C)CCC(OC7OC(C(=O)O)C(O)C(OC8OCC(O)C(O)C8O)C7OC7OC(CO)C(O)C(O)C7O)C(C)(C=NNC(=O)CCCCCN7C(=O)C=CC7=O)C6CCC5(C)C3(C)CC4O)C(OC3OC(C)C(OC4OCC(O)C(OC5OC(CO)C(O)C(O)C5O)C4O)C(O)C3O)C2O)C(O)C(OC2OCC(O)C(O)C2O)C1O (stereo not shown) [Molecule 15]
CMC compared to corresponding underivatised saponin [2]: increased CMC | Endosomal escape enhancing activity (enhancement of cytotoxicity of effector conjugate) [3]: have the capacity to enhance the cytotoxic effect

CC(=O)OC1C(C)OC(OC2C(C)OC(OC(=O)[C@]34CCC(C)(C)CC3C3=CCC5[C@@]6(C)CC[C@H](OC7OC(C(=O)O)C(O)C(OC8OCC(O)C(O)C8O)C7OC7OC(CO)C(O)C(O)C7O)[C@@](C)(C=O)C6CC[C@@]5(C)[C@]3(C)C[C@H]4O)C(OC3OC(C)C(OC4OCC(O)C(OC5OC(CO)C(O)C(O)C5O)C4O)C(O)C3O)C2O)C(O)C1OC1OCC(O)C(O)C1O (stereo partly shown) [SO1861, reference compound]
IC50 (HeLa cells [4]; saponin alone, read-out: IC50 toxicity): 1000 nM | CMC value [2]: 185 µM | CMC ([2]; Table A7, determined in PBS): 185 ± 19 µM | Cell killing activity (+ or −) (HeLa cells [1]; [11]): + | Cell killing activity (+ or −) (HeLa cells [1]; [12]): − | Cell viability after 72 h (HeLa cells [1]): ~0% | Cell killing activity of saponin alone [5]: no cell killing activity | Cell killing activity of saponin alone [6]: no cell killing activity | General toxicity (IC50 / highest concentration) (HeLa (EGFR+) cells; in absence of EGFdianthin): strong cell viability reduction | Toxicity as single compound (A431 (EGFR++) cells; A431, without EGFdianthin): strong cell viability reduction | Toxicity as single compound (A2058 (EGFR−) cells; without EGFdianthin): strong cell viability reduction

CC(=O)OC1C(C)OC(OC2C(C)OC(OC(=O)[C@]34CCC(C)(C)CC3C3=CCC5[C@@]6(C)CC[C@H](OC7OC(C(=O)O)C(O)C(OC8OCC(O)C(O)C8O)C7OC7OC(CO)C(O)C(O)C7O)[C@@](C)(/C=N/NC(=O)CCCCCN7C(=O)C=CC7=O)C6CC[C@@]5(C)[C@]3(C)C[C@H]4O)C(OC3OC(C)C(OC4OCC(O)C(OC5OC(CO)C(O)C(O)C5O)C4O)C(O)C3O)C2O)C(O)C1OC1OCC(O)C(O)C1O (stereo partly shown) [SO1861-Ald-EMCH]
IC50 [7]: 2000 nM | IC50 (A431 cells; A-431, Table A6, saponin alone, read-out: IC50 nM (Toxicity)): 30000 nM | IC50 (A431 cells; A-431, text, saponin alone, read-out: IC50 toxicity): 30000 nM | IC50 (HeLa cells [4]; Homo sapiens, HeLa, Table A5, saponin alone, read-out: IC50 nM (Toxicity)): > 100000 nM | IC50 (HeLa cells [4]; Homo sapiens, HeLa, saponin alone, read-out: IC50 toxicity): > 100000 nM | IC50 (human red blood cells; Table A5, read-out: IC50 nM (hemolysis)): > 1e+06 nM | IC50 (human red blood cells; Table A6, read-out: IC50 nM (hemolysis)): > 1e+06 nM | IC50 (human red blood cells; read-out: IC50 hemolytic activity): > 1e+06 nM | CMC value [2]: > 800 µM | Cell killing activity (+ or −) (HeLa cells [1]; [11]): + | Cell killing activity (+ or −) (HeLa cells [1]; [12]): − | Cell viability after 72 h (HeLa cells [1]): reduced cell viability | Cell killing activity of saponin alone [5]: no cell killing activity | Cell killing activity of saponin alone [6]: no cell killing activity | HSP27 gene silencing activity alone (HSP27 mRNA [8]): no HSP27 gene silencing activity | IC50 (HeLa (EGFR+) cells; Homo sapiens): > 25 µM | IC50 (A431 (EGFR++) cells; Homo sapiens, A-431): > 25 µM | IC50 (A2058 (EGFR−) cells; Homo sapiens, read-out: Toxicity as single compound): > 25 µM | Hydrolysis of the hydrazone bond [9]: gets cleaved

HSP27BNA: antisense BNA oligo against HSP27 mRNA, 5′-GGCacagccagtgGCG-3′ (antisense GGCACAGCCAGTGGCG; sugars from the 5' end [BNA]3 d10 [BNA]3, backbone and methylation of C not given here)
IC50 (HSP27 mRNA [10]): 2 nM
